The assay has as its target T1, phosphatidylinositol 3-kinase gamma isoform (p110?), recombinant GST-p110? (Homo sapiens, UniProt P48736).
T1 construct: made in house; host or cells: Sf9 (Spodoptera frugiperda) insect cells, baculovirus
Put plainly: PI3K gamma in vitro kinase assay (Scintillation Proximity Assay, phosphate transfer from ATP to phosphatidylinositol). Conditions: for IC50: gamma isoform, fluorinated Example compound. Type of assay: biochemical. From the text: Compounds of formula I and their pharmaceutically acceptable salts, hereinafter referred to alternatively as agents of the invention, are useful as pharmaceuticals.
Baculovirus expressing different fragments of PI3K? fused to GST have been previously described by Stoyanova, S., Bulgarelli-Leva, G., Kirsch, C., Hanck, T., Klinger, R., Wetzker, R., Wymann, M. P. (1997) Lipid- and protein kinase activities of G protein-coupled PI 3-kinase g: structure-activity analysis and interactions with wortmannin. Biochem. J., 324:489. Residues 38-1102 of human PI3K? are subcloned into the BamH1 and EcoR1 sites of the transfer vector pAcG2T (Pharmingen) to create a GST-PI3K? lacking the first 37 residues of PI3K?. To express the recombinant protein, Sf9 (Spodoptera frugiperda 9) insect cells are routinely maintained at densities between 3×10^5 and 3×10^6 cells/ml in serum containing TNMFH medium (Sigma). Sf9 cells, at a density of 2×10^6 are infected with human GST-PI3K[…] 34 baculovirus at a multiplicity of infection (m.o.i.) of 1 for 72 hours. The infected cells are harvested by centrifugation at 1400 g for 4 minutes at 4° C. and the cell pellets are frozen at −80° C. Both Sf9 and Sf21 cells work equally well. Sf9 cells (1×10^9) are resuspended in 100 ml cold (4° C.) lysis buffer (50 mM Tris-HCl pH 7.5, 1% Triton X-100, 150 mM NaCl, 1 mM NaF, 2 mM DTT and protease inhibitors. Cells are incubated on ice for 30 minutes then centrifuged at 15000 g for 20 minutes at 4° C. Purification of the supernatant sample is carried out at 4° C. by affinity chromatography using SEPHAROSE™ agarose gel beads coupled to glutathione (from Amersham Pharmacia Biotech). A cell lysate/GST resin ratio of 50:1 is used. The GST resin is firstly pre-rinsed to remove ethanol preservative and then equilibrated with lysis buffer. Cell lysate (supernatant) is added (usually as 50 ml lysate to 1 ml GST resin in 50 ml tubes) and gently rotated on a mixer at 4° C. for 2-3 hours. The unbound flow through sample is collected by centrifugation at 1000 g for 5 minutes at 4° C. using a DENLEY™ centrifuge. The 1 ml GST resin containing bound material is transferred to a 15 ml FALCON™ centrifuge tube for subsequent washing and elution steps. Firstly a series of 3 cycles of washings (mixing by gentle inversion) is performed with 15 ml ice cold wash Buffer A (50 mM Tris-HCl pH 7.5, 1% Triton X-100, 2 mM DTT) interspersed with centrifugation at 1000 g for 5 minutes at 4° C. A final single wash step is performed with 15 ml ice cold wash Buffer B (50 mM Tris-HCl pH 7.5, 2 mM DTT) and then centrifuged at 1000 g for 5 minutes at 4° C. The washed GST resin is finally eluted with 4 cycles of 1 ml ice cold elution buffer (50 mM Tris-HCl pH 7.5, 10 mM reduced glutathione, 2 mM DTT, 150 mM NaCl, 1 mM NaF, 50% ethylene glycol and protease inhibitors) interspersed with centrifugation at 1000 g for 5 minutes at 4° C. Samples are aliquoted and stored at −20° C.
An in vitro kinase assay was established that measures the transfer of the terminal phosphate of adenosine triphosphate to phosphatidylinositol. The kinase reaction is performed in a white 96 well microtitre plate as a Scintillation Proximity Assay. Each well contains 10 μl test compound in 5% dimethylsulphoxide and 20 μl assay mix (40 mM Tris, 200 mM NaCl, 2 mM ethyleneglycol-aminoethyl-tetraacetic acid (EGTA), 15 μg/ml phosphatidylinositol, 12.5 μM adenosine triphosphate (ATP), 25 mM MgCl2, 0.1 μCi [^33P]ATP). […]
In general terms: In a scintillation proximity assay essentially only radioactivity close to the scintillant gives light.

T1 sequence (P48736 38-1102): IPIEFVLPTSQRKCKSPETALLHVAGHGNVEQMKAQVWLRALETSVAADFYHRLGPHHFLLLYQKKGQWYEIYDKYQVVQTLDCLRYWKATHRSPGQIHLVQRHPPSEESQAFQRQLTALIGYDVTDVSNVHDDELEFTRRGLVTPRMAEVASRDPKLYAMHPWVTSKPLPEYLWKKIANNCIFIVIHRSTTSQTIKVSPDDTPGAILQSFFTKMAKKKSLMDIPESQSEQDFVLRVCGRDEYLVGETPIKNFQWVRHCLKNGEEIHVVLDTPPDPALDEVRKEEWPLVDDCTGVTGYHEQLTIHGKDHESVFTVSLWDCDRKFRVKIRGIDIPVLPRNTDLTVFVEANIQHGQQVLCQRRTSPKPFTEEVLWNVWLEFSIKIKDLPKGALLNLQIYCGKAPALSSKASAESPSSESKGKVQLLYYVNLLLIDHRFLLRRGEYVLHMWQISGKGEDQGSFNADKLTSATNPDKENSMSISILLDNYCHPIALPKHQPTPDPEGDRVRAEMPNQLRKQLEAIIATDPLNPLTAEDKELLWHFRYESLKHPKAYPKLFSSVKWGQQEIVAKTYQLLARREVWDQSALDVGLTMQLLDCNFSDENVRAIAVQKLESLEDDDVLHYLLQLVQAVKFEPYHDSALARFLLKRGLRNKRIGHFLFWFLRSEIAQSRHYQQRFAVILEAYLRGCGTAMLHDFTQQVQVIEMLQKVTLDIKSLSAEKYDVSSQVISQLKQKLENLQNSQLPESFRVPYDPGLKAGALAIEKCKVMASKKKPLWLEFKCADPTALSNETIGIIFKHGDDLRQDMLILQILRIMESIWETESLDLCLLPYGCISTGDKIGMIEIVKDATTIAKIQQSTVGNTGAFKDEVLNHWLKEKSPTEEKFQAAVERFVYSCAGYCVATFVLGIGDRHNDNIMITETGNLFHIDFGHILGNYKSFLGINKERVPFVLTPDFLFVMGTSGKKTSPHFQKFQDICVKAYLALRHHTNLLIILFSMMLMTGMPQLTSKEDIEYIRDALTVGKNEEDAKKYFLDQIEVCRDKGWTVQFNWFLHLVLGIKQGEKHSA

By IC50 is commonly meant the point on the concentration scale where inhibition reaches its midpoint. Turning to `Cc1nc(NC(=O)NCCC(=O)NCC(F)F)sc1-c1ccc(S(C)(=O)=O)c(F)c1` [compound 2, N-(2,2-Difluoroethyl)-3-{3-[5-(3-fluoro-4-methanesulfonyl-phenyl)-4-methyl-thiazol-2-yl]-ureido}-propionamide], the IC50 worked out at 0.028 µM.
Same read-out and setting: for `Cc1nc(NC(=O)NCCc2cn(CCF)cn2)sc1-c1ccc(S(C)(=O)=O)c(F)c1` [compound 7, 1-{2-[1-(2-Fluoro-ethyl)-1H-imidazol-4-yl]-ethyl}-3-[5-(3-fluoro-4-methanesulfonyl-phenyl)-4-methyl-thiazol-2-yl]-urea] the value was 0.028 µM.
On to `Cc1nc(NC(=O)NCCc2nnn(CCF)n2)sc1-c1ccc(S(C)(=O)=O)c(F)c1` [compound 8, 1-{2-[2-(2-Fluoro-ethyl)-2H-tetrazol-5-yl]-ethyl}-3-[5-(3-fluoro-4-methanesulfonyl-phenyl)-4-methyl-thiazol-2-yl]-urea], for which the IC50 amounted to 0.01 µM. Further, the “increase in activity over the corresponding compound described in WO0521519” value (fold, from IC50 (?) values of the table) is “four-fold”.
On to “N-(2-Fluoro-1,1-dimethyl-ethyl-3-{3-[5-(3-fluoro-4-methanesulfonyl-phenyl)-4-methyl-thiazol-2-yl]-ureido}-propionamide [compound 1]”, for which the IC50 is 0.046 µM.

(Values after patent US7998990B2, “5-phenyl-thiazol-2-yl-urea derivatives and use as PI3 kinase inhibitors” (Novartis AG, priority 2006, dated 2011).)
